{"source": "paper PMC6437697", "about": "(Journal of Medicinal Chemistry, 2019)", "assay_in_all_cases": "KINOMEscan", "type_in_all_cases": "binding", "details_in_all_cases": "read-out: % control activity remaining", "key": {"MAP4K2": {"molecular_target": "T1, MAP4K2 (Homo sapiens, UniProt Q12851)", "T1 construct": "purchased Eurofins DiscoverX KINOMEscan", "T1 sequence (Q12851 1-820)": "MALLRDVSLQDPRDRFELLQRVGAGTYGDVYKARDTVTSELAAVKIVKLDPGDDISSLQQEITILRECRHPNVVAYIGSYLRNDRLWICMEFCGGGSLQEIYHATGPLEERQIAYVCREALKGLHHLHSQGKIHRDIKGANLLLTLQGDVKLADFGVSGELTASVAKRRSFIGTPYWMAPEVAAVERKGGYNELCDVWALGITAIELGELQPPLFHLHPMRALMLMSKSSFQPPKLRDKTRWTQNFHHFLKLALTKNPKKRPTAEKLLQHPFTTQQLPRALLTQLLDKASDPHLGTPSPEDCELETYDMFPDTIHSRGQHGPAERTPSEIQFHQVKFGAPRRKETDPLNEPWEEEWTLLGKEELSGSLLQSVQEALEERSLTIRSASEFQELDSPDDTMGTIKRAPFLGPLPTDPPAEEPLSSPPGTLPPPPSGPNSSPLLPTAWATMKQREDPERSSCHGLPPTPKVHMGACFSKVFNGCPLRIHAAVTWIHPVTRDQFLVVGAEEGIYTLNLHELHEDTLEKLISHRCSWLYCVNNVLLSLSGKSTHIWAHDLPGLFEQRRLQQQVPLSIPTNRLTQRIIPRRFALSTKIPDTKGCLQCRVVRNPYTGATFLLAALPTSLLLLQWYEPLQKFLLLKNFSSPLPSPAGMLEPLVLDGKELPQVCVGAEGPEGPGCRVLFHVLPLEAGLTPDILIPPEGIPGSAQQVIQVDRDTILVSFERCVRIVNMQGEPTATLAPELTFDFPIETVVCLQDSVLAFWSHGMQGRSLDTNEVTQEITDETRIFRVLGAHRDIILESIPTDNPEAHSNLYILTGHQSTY"}, "NEK4": {"molecular_target": "T2, NEK4 (Homo sapiens, UniProt P51957)", "T2 construct": "purchased Eurofins DiscoverX KINOMEscan", "T2 sequence (P51957 whole entry)": "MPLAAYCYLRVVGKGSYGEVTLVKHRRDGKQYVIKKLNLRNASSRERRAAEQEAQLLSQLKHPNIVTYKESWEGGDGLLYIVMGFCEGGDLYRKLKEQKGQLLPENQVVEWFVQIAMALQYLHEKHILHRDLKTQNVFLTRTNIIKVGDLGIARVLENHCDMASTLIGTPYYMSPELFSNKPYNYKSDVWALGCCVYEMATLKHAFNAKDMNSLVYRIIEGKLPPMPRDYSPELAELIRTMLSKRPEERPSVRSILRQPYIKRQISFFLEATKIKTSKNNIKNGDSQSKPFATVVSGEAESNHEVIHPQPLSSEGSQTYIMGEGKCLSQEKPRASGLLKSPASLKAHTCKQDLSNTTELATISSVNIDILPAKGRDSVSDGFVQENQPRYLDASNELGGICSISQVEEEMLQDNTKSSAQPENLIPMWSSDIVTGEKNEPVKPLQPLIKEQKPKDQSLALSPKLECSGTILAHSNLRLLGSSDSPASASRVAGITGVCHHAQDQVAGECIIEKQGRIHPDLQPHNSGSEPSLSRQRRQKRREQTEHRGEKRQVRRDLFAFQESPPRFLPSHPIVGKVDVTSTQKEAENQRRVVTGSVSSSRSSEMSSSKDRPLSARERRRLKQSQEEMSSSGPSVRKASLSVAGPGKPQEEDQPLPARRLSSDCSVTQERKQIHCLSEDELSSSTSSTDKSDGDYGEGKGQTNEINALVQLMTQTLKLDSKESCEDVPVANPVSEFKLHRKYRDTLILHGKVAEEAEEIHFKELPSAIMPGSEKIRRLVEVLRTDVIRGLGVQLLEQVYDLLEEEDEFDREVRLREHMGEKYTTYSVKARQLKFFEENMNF"}, "[1]": {"molecular_target": "T3, RPS6KA5(Kin.Dom.1-N-terminal) (Homo sapiens, UniProt O75582)", "T3 construct": "RPS6KA5(Kin.Dom.1-N-terminal); purchased Eurofins DiscoverX KINOMEscan", "T3 sequence (O75582 49-318 limits assumed)": "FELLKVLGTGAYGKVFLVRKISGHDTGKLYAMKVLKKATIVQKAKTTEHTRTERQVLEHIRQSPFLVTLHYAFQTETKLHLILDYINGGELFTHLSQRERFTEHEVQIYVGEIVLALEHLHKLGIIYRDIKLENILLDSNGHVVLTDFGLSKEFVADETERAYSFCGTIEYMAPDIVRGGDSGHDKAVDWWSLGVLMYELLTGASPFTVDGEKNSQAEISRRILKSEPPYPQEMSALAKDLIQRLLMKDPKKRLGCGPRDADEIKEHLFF"}, "MEK5": {"molecular_target": "T4, MEK5 (Homo sapiens, UniProt Q13163)", "T4 construct": "purchased Eurofins DiscoverX KINOMEscan", "T4 sequence (Q13163 1-448)": "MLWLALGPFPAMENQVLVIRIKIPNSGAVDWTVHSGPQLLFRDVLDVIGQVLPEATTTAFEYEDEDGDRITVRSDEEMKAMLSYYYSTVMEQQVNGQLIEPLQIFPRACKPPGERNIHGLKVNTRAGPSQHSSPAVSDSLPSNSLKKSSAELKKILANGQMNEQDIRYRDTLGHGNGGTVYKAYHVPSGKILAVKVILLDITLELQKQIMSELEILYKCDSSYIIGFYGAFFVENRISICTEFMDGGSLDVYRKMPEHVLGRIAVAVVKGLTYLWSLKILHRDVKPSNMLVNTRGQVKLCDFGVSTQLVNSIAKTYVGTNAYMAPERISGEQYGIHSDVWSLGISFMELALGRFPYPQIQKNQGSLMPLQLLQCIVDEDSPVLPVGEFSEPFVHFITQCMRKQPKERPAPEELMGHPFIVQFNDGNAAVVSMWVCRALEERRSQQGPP"}, "MKNK2": {"molecular_target": "T5, MKNK2 (Homo sapiens, UniProt Q9HBH9)", "T5 construct": "purchased Eurofins DiscoverX KINOMEscan", "T5 sequence (Q9HBH9 whole entry)": "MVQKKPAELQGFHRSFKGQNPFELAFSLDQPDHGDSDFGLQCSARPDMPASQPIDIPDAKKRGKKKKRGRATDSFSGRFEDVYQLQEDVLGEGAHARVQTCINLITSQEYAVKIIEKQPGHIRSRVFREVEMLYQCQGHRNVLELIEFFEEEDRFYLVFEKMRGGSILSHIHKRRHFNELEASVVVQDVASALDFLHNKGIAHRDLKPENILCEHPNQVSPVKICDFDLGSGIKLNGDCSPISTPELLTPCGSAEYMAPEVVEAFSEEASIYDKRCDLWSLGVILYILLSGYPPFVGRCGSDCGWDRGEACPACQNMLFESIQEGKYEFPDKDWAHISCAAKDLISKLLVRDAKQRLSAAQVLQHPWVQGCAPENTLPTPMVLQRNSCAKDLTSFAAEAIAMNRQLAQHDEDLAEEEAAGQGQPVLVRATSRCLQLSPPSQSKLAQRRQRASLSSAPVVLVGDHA"}, "YSK4": {"molecular_target": "T6, YSK4 (Homo sapiens, UniProt Q56UN5)", "T6 construct": "purchased Eurofins DiscoverX KINOMEscan", "T6 sequence (Q56UN5 1-1328)": "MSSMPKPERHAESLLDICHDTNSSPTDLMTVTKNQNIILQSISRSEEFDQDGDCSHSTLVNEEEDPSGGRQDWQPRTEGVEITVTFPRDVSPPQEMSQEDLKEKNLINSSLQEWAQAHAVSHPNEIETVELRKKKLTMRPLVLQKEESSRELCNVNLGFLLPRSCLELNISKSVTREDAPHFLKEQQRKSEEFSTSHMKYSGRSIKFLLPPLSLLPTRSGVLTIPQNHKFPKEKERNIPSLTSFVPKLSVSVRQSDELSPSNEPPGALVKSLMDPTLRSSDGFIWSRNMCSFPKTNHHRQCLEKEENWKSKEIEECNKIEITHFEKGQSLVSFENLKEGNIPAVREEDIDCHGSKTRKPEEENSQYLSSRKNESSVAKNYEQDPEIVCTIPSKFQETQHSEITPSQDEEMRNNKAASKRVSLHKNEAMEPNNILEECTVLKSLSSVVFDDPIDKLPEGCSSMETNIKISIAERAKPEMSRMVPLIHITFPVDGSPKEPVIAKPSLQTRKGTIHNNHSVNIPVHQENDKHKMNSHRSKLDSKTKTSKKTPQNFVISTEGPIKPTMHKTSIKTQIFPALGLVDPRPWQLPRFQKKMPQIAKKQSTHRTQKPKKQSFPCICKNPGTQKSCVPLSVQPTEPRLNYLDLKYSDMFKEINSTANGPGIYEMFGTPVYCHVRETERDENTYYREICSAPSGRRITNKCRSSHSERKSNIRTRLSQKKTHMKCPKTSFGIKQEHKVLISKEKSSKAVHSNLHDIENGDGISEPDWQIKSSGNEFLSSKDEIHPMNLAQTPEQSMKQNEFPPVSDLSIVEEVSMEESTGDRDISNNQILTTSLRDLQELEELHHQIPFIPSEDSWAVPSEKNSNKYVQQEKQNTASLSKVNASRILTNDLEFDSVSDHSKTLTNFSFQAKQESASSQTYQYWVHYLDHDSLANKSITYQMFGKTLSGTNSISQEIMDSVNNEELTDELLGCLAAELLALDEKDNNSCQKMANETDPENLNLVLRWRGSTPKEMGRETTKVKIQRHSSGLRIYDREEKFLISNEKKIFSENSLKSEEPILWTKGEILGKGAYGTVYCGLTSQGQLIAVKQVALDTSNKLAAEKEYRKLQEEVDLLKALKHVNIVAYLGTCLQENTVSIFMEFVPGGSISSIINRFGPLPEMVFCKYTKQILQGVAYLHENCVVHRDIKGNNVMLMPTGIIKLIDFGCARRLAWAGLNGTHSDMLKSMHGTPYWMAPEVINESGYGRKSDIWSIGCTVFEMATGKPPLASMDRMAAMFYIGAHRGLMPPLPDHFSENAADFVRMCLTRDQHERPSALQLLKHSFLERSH"}}}
{"compound": "Clc1cc(NCC2CC2)c2ncc(-c3ccc4[nH]ncc4c3)n2n1", "note": "[compound 2, 6-Chloro-N-(cyclopropylmethyl)-3-(1H-indazol-5-yl)imidazo[1,2-b]pyridazin-8-amine]", "values": [{"measurement": "remaining binding at 1 µM", "setting": "MAP4K2", "value": 99, "unit": "%"}, {"measurement": "remaining binding at 1 µM", "setting": "NEK4", "value": 99, "unit": "%"}, {"measurement": "remaining binding at 1 µM", "setting": "[1]", "value": 100, "unit": "%"}, {"measurement": "remaining binding at 1 µM", "setting": "MEK5", "value": 85, "unit": "%"}, {"measurement": "remaining binding at 1 µM", "setting": "MKNK2", "value": 80, "unit": "%"}, {"measurement": "remaining binding at 1 µM", "setting": "YSK4", "value": 45, "unit": "%"}]}
{"compound": "O=C(CN1CCOCC1)N[C@H]1CC[C@H](Nc2cc(Cl)nn3c(-c4ccc5[nH]ncc5c4)cnc23)CC1", "note": "[compound 26]", "values": [{"measurement": "remaining binding at 1 µM", "setting": "MAP4K2", "value": 76, "unit": "%"}, {"measurement": "remaining binding at 1 µM", "setting": "NEK4", "value": 100, "unit": "%"}, {"measurement": "remaining binding at 1 µM", "setting": "[1]", "value": 99, "unit": "%"}, {"measurement": "remaining binding at 1 µM", "setting": "MEK5", "value": 95, "unit": "%"}, {"measurement": "remaining binding at 1 µM", "setting": "MKNK2", "value": 67, "unit": "%"}, {"measurement": "remaining binding at 1 µM", "setting": "YSK4", "value": 23, "unit": "%"}]}
{"compound": "CN1CCC(CNc2cc(Cl)nn3c(-c4cc5nc(Nc6ccccc6)[nH]c5cc4F)cnc23)CC1", "note": "[compound 31, 6-Chloro-3-(6-fluoro-2-(phenylamino)-1H-benzo[d]imidazol-5-yl)-N-((1-methylpiperidin-4-yl)methyl)imidazo[1,2-b]pyridazin-8-amine]", "values": [{"measurement": "remaining binding at 1 µM", "setting": "MAP4K2", "value": 85, "unit": "%"}, {"measurement": "remaining binding at 1 µM", "setting": "NEK4", "value": 95, "unit": "%"}, {"measurement": "remaining binding at 1 µM", "setting": "[1]", "value": 100, "unit": "%"}, {"measurement": "remaining binding at 1 µM", "setting": "MEK5", "value": 71, "unit": "%"}, {"measurement": "remaining binding at 1 µM", "setting": "MKNK2", "value": 74, "unit": "%"}, {"measurement": "remaining binding at 1 µM", "setting": "YSK4", "value": 77, "unit": "%"}]}
